Test results published in US5491152A, “Derivatives of cyclic ethers and sulfides for the treatment of atherosclerosis” (The Du Pont Merck Pharmaceutical Company, priority 1994, dated 1996).

The molecules below were run on ACAT (assay: Systemic availability of ACAT inhibitors (Ex Vivo Assay): ACAT activity in livers from orally dosed rats). Details: rat, oral gavage 10 mg/kg, days 1-3, livers taken 3 h after last dose; class symbols.
Design: species or system rat (male (CD) Sprague Dawley)
Experimental: B. Assay for the Systemic Availability of ACAT Inhibitors (Ex Vivo Assay)
The inhibition of ACAT activity in livers obtained from rats orally dosed with an inhibitor was used as a determination of the compound's systemic availability. The ability of ACAT inhibitors to affect cholesterol esterification in livers obtained from dosed animals was tested as follows. This assay is also referred to herein as the Ex Vivo Assay. Male (CD) Sprague Dawley rats weighing from 190-210 g were fed purina lab chow ad libitum. Rats, three per group, were orally gavaged with 10 mg/kg of active ACAT inhibitor. The compounds were dissolved in ethanol (10% of final volume); a PEG solution (80 propylene glycol:20 polyethylene glycol 400, w:w) was added and the compound was mixed completely prior to dosing. A control group received the dosing vehicle alone. The animals were dosed once on Day 1 (am), twice on Day 2 (am and pm) and once on the morning of Day 3. Three hours after the last dose animals were euthanized using CO2. Livers were perfused with a 0.25M sucrose solution, excised, and frozen. Livers were thawed and resuspended in buffer (2 mL/g, 0.1M Phosphate, pH 7.4, 1.0 mM glutathione, 0.5 mM EDTA, 20 μM leupeptin, 60 μM benzamidine, and 0.25M sucrose). The samples were homogenized and post nuclear microsomes were obtained by centrifugation: 1.000× g for 5 min. and the resulting supernatant, 100,000× g for 1 hr. Microsomes were resuspended in phosphate buffer to approximately 25 mg/mL and frozen at -70° C. until assayed for ACAT activity.
ACAT assays contained in a final volume of 200 μl:100 ug microsomal protein, 75 μM ^14 C-oleoyl-CoA (10,000 dpm/nmol), 0.75 mg bovine serum albumin, 0.1M phosphate buffer, pH 7.4, and 1 mM glutathione. All components, except the oleoyl-CoA, were preincubated for 15 min at 37° C. prior to the initiation of the reaction by the addition of oleoyl-CoA. The assay was terminated after 10 min and ACAT activity determined as described in section A above. The average specific activity of ACAT in the vehicle control group was 661 +/- 64 pmol/min/mg (SEM). The data (% inhibition) are expressed as 100 minus the % ACAT activity in livers from dosed animals versus those from a vehicle control group.

CCCCC1=C(CCCC)CC(C(=O)Nc2c(Cl)cccc2Cl)SC1 (stereo not drawn) [Example 42] was tested, and the “Inhibition of ACAT, Ex Vivo Assay (% inhibition)” value (“Inhibition … (% inhibition)” for short) was “+ (10-49%)”.
For CCCCCC1C=CC(CCCCC)C(C(=O)Nc2c(C(C)C)cccc2C(C)C)S1 (stereo not drawn) [Example 66, N-(2,6-diisopropylphenyl)-3,6-dihydro-3,6-dipentyl-2H-thiopyran-2-carboxamide], the “Inhibition … (% inhibition)” value was “++ (>50%)”.
For CCCCCC1C=CC(CCCCC)C(C(=O)Nc2c(SC)cc(C)nc2SC)S1 (stereo not drawn) [Example 70, N-[2,4-bis(methylthio)-6-methylpyridin-3-yl]-3,6-dipentyl-2,3-dihydro-2H-thiopyran-2-carboxamide], the “Inhibition … (% inhibition)” value was “++ (>50%)”.

Same assay, conditions: rat, oral gavage 10 mg/kg, days 1-3, livers taken 3 h after last dose; given as number

For CCCCCC1=C(CCCCC)CC(C(=O)Nc2c(SC)cc(C)nc2SC)SC1 (stereo not drawn) [Example 31], the “Inhibition … (% inhibition)” value was under 10%.
For CCCC1C=CC(CCC)C(C(=O)Nc2c(SC)cc(C)nc2SC)S1 (stereo not drawn) [Example 140], the “Inhibition … (% inhibition)” value was under 10%.

What follows are molecules tested against T1, Acyl-CoA: Cholesterol Acyltransferase (ACAT) (Rattus norvegicus, UniProt Q7TQM4) (assay: Inhibition of Acyl-CoA: Cholesterol Acyltransferase (ACAT) in hepatic microsomes (In Vitro Assay)). Details: 75 μM 14C-oleoyl-CoA, pH 7.4, 37° C., 15 min preincubation, 10 min.
T1 construct: Microsomes were obtained by differential centrifugation; from tissue; host or cells: liver microsomes of male Sprague Dawley rats
T1 sequence (Q7TQM4 1-524): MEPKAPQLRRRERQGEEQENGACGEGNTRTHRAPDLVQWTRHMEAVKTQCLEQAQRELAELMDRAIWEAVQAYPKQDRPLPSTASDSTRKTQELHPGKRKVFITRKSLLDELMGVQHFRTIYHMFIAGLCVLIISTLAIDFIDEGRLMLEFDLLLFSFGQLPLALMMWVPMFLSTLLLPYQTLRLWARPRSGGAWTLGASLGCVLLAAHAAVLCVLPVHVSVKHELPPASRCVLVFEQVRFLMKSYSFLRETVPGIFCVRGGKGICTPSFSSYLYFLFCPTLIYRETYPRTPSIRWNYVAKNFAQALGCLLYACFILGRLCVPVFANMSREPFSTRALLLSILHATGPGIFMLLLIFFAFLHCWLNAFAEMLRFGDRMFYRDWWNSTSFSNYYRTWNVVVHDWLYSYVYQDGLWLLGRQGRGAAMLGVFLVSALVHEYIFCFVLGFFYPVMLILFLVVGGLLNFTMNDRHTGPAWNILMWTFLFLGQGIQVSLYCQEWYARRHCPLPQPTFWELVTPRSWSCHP
Type: biochemical, rat (male Sprague Dawley)
Experimental: A. Assay of the Inhibition of Acyl-CoA: Cholesterol Acyltransferase (ACAT) in Hepatic Microsomes (In Vitro Assay)
The ability of the compounds to inhibit ACAT, the enzyme responsible for the intracellular synthesis of cholesteryl esters, was tested as follows. Male Sprague Dawley rats weighing 150-300 g, were fed rat chow ad libitum. The animals were fasted for twenty-four hours prior to being euthanized by CO2. The livers were perfused in situ with 50 ml of cold 0.25 sucrose, excised, and homogenized in three volumes of 0.1M phosphate buffer, pH 7.4, that contained 0.5 mM EDTA (ethylenediamine-tetraacetic acid), 1.0 mM glutathione, 0.25M sucrose and 20 mM leupeptin. Microsomes were obtained by differential centrifugation; the supernatant from an initial spin at 15,000× g for 15 minutes was centrifuged at 105,000× g for 1 hour to pellet the microsomes. The microsomes were suspended in 0.1M phosphate buffer, pH 7.4 with 1 mM GSH and stored at -70° C. Microsomes were used within one month of preparation.
The control assay in a final volume of 200 μl consisted of 200 μg of microsomal protein, 75 μM ^14 C-oleoyl-CoA (10,000 dpm/nmol) in 0.1M phosphate, pH 7.4, that contained 1 mM glutathione. Compounds were added in 5 μl of DMSO (dimethyl sulfoxide) and additional controls were run with DMSO only. All components, except the oleoyl-CoA, were preincubated for 15 min. at 37° C. prior to the initiation of the reaction by the addition of oleoyl-CoA. The assay was terminated after 10 min by the addition of 4 ml of chloroform:methanol (2:1, v/v). 20,000 dpm of ^3 H-cholesteryl oleate and 10 μg of unlabeled cholesteryl oleate and oleic acid were added as an internal standard and carriers, respectively. After allowing 10 min. for lipid extraction, the samples were centrifuged at 1,000× g for 10 min to separate the solvent layers. The chloroform layer containing the neutral lipids was spotted onto a Baker SI250-Pa silica gel TLC plate and the plate developed using a hexane:diethyl ether:acetic acid (170:30:1) v/v/v) mobile phase. The lipids were visualized by their interaction with iodine vapor and the cholesteryl ester spot was scraped into a scintillation vial and counted. The specific activity of ACAT in the control incubation averaged 260 pmol/min/mg microsomal protein. The data obtained are expressed as the concentration at which ACAT activity is inhibited by 50% (IC50).

First: CCCCO[C@H]1[C@@H](OC)O[C@H](C(=O)Nc2c(SC)cc(C)nc2SC)C(OCc2ccccc2)[C@@H]1OCCCC (stereo in doubt) [Example 426, (2S,3R,4S,5R,6S)-N-[2,4-bis(methylthio)-6-methylpyridin-3-yl]-3-benzyloxy-4,5-dibutoxy-6-methoxy-3,4,5,6-tetrahydro-2H-pyran-2-carboxamide]
Second: CCCCCCC1=C(CCCCCC)CC(C(=O)Nc2c(C(C)C)cccc2C(C)C)SC1 (stereo not drawn) [Example 1]
The IC50 of the first is higher: 11 to 50 µM for the first, under 2 µM for the second. The second is the more potent here.

Compared with CCCCCCC1=C(CCCCCC)CC(C(=O)Nc2c(C)cccc2C)SC1 (stereo not drawn) [Example 2], CCCCCCC1=C(CCCCCC)CC(C(=O)Nc2c(Cl)cccc2Cl)SC1 (stereo not drawn) [Example 3] is higher in IC50: under 2 µM for the first, 3 to 10 µM for the second.

First: CC(C)(C)C1C=CCC(C(=O)Nc2ccc(F)cc2F)S1 (stereo not drawn) [Example 17]
Second: CCCCCC1=C(CCCCC)CC(C(=O)Nc2c(C(C)C)cccc2C(C)C)SC1 (stereo not drawn) [Example 27, N-(2,6-diisopropylphenyl)-3,6-dihydro-4,5-dipentyl-2H-thiopyran-2-carboxamide]
The IC50 of the first is higher: 11 to 50 µM for the first, under 2 µM for the second.

CCCCCC1=C(CCCCC)CC(C(=O)Nc2c(C)cccc2C)SC1 (stereo not drawn) [Example 28] and CCCCCC1=C(CCCCC)CC(C(=O)Nc2c(Cl)cccc2Cl)SC1 (stereo not drawn) [Example 29] cannot be ordered by IC50: under 2 µM for the first, under 2 µM for the second.

First: CCCCCC1=C(CCCCC)CC(C(=O)Nc2ccc(F)cc2F)SC1 (stereo not drawn) [Example 30]
Second: CCCCCC1=C(CCCCC)CC(C(=O)Nc2c(SC)cc(C)nc2SC)SC1 (stereo not drawn) [Example 31]
The IC50 of the first is higher: 11 to 50 µM for the first, under 2 µM for the second. The second is the more potent here.

Compared with CCCCCC1=C(CCCCC)CC(C(=O)Nc2cncnc2SC)SC1 (stereo not drawn) [Example 32], CCCCCC1=C(CCCCC)CC(C(=O)Nc2cccnc2SC)SC1 (stereo not drawn) [Example 33] is higher in IC50: 3 to 10 µM for the first, 11 to 50 µM for the second. The first is the more potent here.

Compared with CCCCCC1=C(CCCCC)CC(C(=O)Nc2ccc(SC)nc2)SC1 (stereo not drawn) [Example 34], CCCCCCCCC1=C(CCCCCCCC)CC(C(=O)Nc2c(SC)cc(C)nc2SC)SC1 (stereo not drawn) [Example 35] is lower in IC50: 11 to 50 µM for the first, under 2 µM for the second. The second is the more potent here.

CCCCCC1=C(CCCCC)CC(C(=O)Nc2c(C)nn(C)c2SC)SC1 (stereo not drawn) [Example 39] and CCCCC1=C(CCCC)CC(C(=O)Nc2c(C(C)C)cccc2C(C)C)SC1 (stereo not drawn) [Example 40] cannot be ordered by IC50: under 2 µM for the first, under 2 µM for the second.

CCCCC1=C(CCCC)CC(C(=O)Nc2c(C)cccc2C)SC1 (stereo not drawn) [Example 41] and CCCCC1=C(CCCC)CC(C(=O)Nc2c(Cl)cccc2Cl)SC1 (stereo not drawn) [Example 42] cannot be ordered by IC50: under 2 µM for the first, under 2 µM for the second.

Compared with CC1=C(C)CC(C(=O)Nc2c(C(C)C)cccc2C(C)C)SC1 (stereo not drawn) [Example 53], CSc1cc(C)nc(SC)c1NC(=O)C1CC(C)=C(C)CS1 (stereo not drawn) [Example 57] is lower in IC50: 3 to 10 µM for the first, under 2 µM for the second.

CCCCCC1C=CC(CCCCC)C(C(=O)Nc2c(C(C)C)cccc2C(C)C)S1 (stereo not drawn) [Example 66, N-(2,6-diisopropylphenyl)-3,6-dihydro-3,6-dipentyl-2H-thiopyran-2-carboxamide] and CCCCCC1C=CC(CCCCC)C(C(=O)Nc2c(C)cccc2C)S1 (stereo not drawn) [Example 67] cannot be ordered by IC50: under 2 µM for the first, under 2 µM for the second.

First: CCCCCC1C=CC(CCCCC)C(C(=O)Nc2c(Cl)cccc2Cl)S1 (stereo not drawn) [Example 68]
Second: CCCCCC1C=CC(CCCCC)C(C(=O)Nc2ccc(F)cc2F)S1 (stereo not drawn) [Example 69]
The IC50 of the first is lower: under 2 µM for the first, 3 to 10 µM for the second.

CCCCCC1C=CC(CCCCC)C(C(=O)Nc2c(SC)cc(C)nc2SC)S1 (stereo not drawn) [Example 70, N-[2,4-bis(methylthio)-6-methylpyridin-3-yl]-3,6-dipentyl-2,3-dihydro-2H-thiopyran-2-carboxamide] and CCCCCC1=CC(CCCCC)C(C(=O)Nc2c(C(C)C)cccc2C(C)C)SC1 (stereo not drawn) [Example 79] cannot be ordered by IC50: under 2 µM for the first, under 2 µM for the second.

CC1=C(C)CC(C(=O)Nc2c(C(C)C)cccc2C(C)C)OC1 (stereo not drawn) [Example 104] and CSc1cc(C)nc(SC)c1NC(=O)C1CC(C)=C(C)CO1 (stereo not drawn) [Example 106, N-[2,4-bis(methylthio)-6-methyl-3-pyridyl]-2,3-dihydro-4,5-dimethyl-2H-pyran-2-carboxamide] fall in the same range of IC50: 11 to 50 µM for the first, 11 to 50 µM for the second.

CCCCCC1C=CC(CCCCC)[S+]([O-])C1C(=O)Nc1c(SC)cc(C)nc1SC (stereo not drawn) [Example 120] and CSc1cc(C)nc(SC)c1NC(=O)C1SC(c2ccccc2)C=CC1c1ccccc1 (stereo not drawn) [Example 132] cannot be ordered by IC50: under 2 µM for the first, under 2 µM for the second.

First: CCCC1C=CC(CCC)C(C(=O)Nc2c(SC)cc(C)nc2SC)S1 (stereo not drawn) [Example 140]
Second: CSc1cc(C)nc(SC)c1NC(=O)C1SCC=CC1OC(C)=O (stereo not drawn) [Example 168]
The IC50 of the first is lower: under 2 µM for the first, 3 to 10 µM for the second. The first is the more potent here.

CSc1cc(C)nc(SC)c1NC(=O)C1SC(CCCCl)C=CC1CCCCl (stereo not drawn) [Example 180] and CSc1cc(C)nc(SC)c1NC(=O)C1SC(CCCSC2CCCCC2)C=CC1CCCSC1CCCCC1 (stereo not drawn) [Example 184] cannot be ordered by IC50: under 2 µM for the first, under 2 µM for the second.

CCCCCCSC1CC(=O)CC(C(=O)Nc2c(SC)cc(C)nc2SC)S1 (stereo not drawn) [Example 402, N-[2,4-bis(methylthio)-6-methylpyridin-3-yl]-6-hexylthio-2,3,5,6-tetrahydro-4H-thiopyran-4-one-2-carboxamide] and CCCCCOc1cc2c(cc1OC)CC(CCCC)CSC2C(=O)Nc1c(SC)cc(C)nc1SC (stereo not drawn) [Example 907, N-[2,4-bis(methylthio)-6-methylpyridin-3-yl]-4-butyl-7-methoxy-8-pentoxy-1,3,4,5-tetrahydro-2-benzothiepin-1-carboxamide] cannot be ordered by IC50: under 2 µM for the first, under 2 µM for the second.

In the case of “N-[2,6-bis(1-methylethyl)phenyl]-6,7-dimethoxy-1,2,3,4-tetrahydro-2-thianaphthalene-1-carboxamide [Example 613]”, the IC50 is reported as 11 to 50 µM.
